Data on six molecules can be found in ChEMBL document CHEMBL1126480, “Peptide azoles: A new class of biologically-active dipeptide mmetics” (Bioorg Med Chem Lett, 1993).

T1 sequence (P30547 whole entry): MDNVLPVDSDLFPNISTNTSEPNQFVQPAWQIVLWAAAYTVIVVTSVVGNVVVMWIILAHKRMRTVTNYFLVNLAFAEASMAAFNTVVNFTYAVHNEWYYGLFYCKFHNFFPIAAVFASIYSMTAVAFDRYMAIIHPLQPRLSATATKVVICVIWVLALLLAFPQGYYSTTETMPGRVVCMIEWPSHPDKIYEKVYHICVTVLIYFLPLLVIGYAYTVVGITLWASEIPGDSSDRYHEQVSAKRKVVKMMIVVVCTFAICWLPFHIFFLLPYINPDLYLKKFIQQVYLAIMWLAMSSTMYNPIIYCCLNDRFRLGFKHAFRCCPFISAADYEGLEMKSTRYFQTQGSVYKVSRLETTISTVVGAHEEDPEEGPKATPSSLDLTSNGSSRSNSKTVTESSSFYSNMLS

One assay has as its target T1, Substance-P receptor (Cavia porcellus, UniProt P30547). Put plainly: The compound was evaluated in vitro for the antagonistic activity against Tachykinin receptor 1 in guinea pig myenteric plexus longitudinal muscle strips. The assay is classed as functional. The note with it: read-out: pA2 (converted).
For `CC(C)C[C@H](NC(=O)[C@@H](Cc1c[nH]c2ccccc12)NC(=O)[C@H](Cc1ccccc1)c1cnc([C@H](Cc2c[nH]c3ccccc23)NC(=O)[C@@H]2CCCN2)s1)C(=O)N[C@@H](Cc1ccccc1)C(N)=O`, the Kb was 126 nM.

A further assay has as its target T1, Substance-P receptor. Put plainly: The compound was evaluated in vitro for the antagonistic activity against substance P receptor in guinea pig myenteric plexus longitudinal muscle strips. The class given is functional. As to conditions: read-out: pA2 (converted).
`CC(C)C[C@H](NC(=O)[C@@H](Cc1c[nH]c2ccccc12)NC(=O)[C@H](Cc1ccccc1)c1cnc([C@@H](Cc2c[nH]c3ccccc23)NC(=O)[C@@H]2CCCN2)s1)C(=O)N[C@@H](Cc1ccccc1)C(N)=O`: the Kb is 39.8 nM.

Take `CC(C)C[C@H](NC(=O)[C@@H](Cc1c[nH]c2ccccc12)c1cnc(C(=O)[C@H](Cc2ccccc2)NC(=O)[C@@H](Cc2c[nH]c3ccccc23)NC(=O)[C@@H]2CCCN2)s1)C(=O)N[C@@H](Cc1ccccc1)C(N)=O`: the Kb is 1260 nM.

In the case of `CC(C)C[C@H](NC(=O)[C@@H](Cc1c[nH]c2ccccc12)NC(=O)[C@H](Cc1ccccc1)c1c[nH]c([C@@H](Cc2c[nH]c3ccccc23)NC(=O)[C@@H]2CCCN2)n1)C(=O)N[C@@H](Cc1ccccc1)C(N)=O`, the Kb is 200 nM.

As to `CC(C)C[C@H](NC(=O)[C@@H](Cc1c[nH]c2ccccc12)NC(=O)[C@H](Cc1ccccc1)c1cnc([C@@H](Cc2c[nH]c3ccccc23)NC(=O)[C@@H]2CCCN2)o1)C(=O)N[C@@H](Cc1ccccc1)C(N)=O`, the Kb was 501 nM.

For the molecule H-PWFWLF-NH2, the Kb is 398 nM.
